Data set [1] deals with Escherichia coli. Briefly: Antibacterial activity against Escherichia coli MG1655 assessed as bacterial growth inhibition measured after 20 hrs by CLSI protocol based broth microdilution method. In kind it is functional.
Data set [2] deals with Staphylococcus aureus. Briefly: Antibacterial activity against Staphylococcus aureus ATCC 25923 assessed as bacterial growth inhibition measured after 20 hrs by CLSI protocol based broth microdilution method. In kind it is functional.
The subject of data set [3] is Escherichia coli. Kind of data set: Antibacterial activity against Escherichia coli assessed as zone of inhibition by plate agar diffusion method. In kind it is functional.
For data set [4], the system named is Bacillus subtilis. Kind of data set: Antibacterial activity against Bacillus subtilis 168 assessed as diameter of zone of inhibition by agar plate diffusion method. In kind it is functional.
Data set [5] has as its system Bacillus subtilis. Kind of data set: Bacteriostatic activity against Bacillus subtilis 168 assessed as reduction in bacterial growth measured after 20 hrs by CLSI protocol based broth microdilution method. In kind it is functional, organism-based.
In data set [6] the test system is Bacillus subtilis. Kind of data set: Induction of morphological changes in Bacillus subtilis 168 assessed as cell lysis at 2.5 to 3.5 times MIC incubated for 2 hrs by phase-contrast microscopic analysis. In kind it is functional, organism-based.
The test system of data set [7] is Staphylococcus aureus. Briefly: Bacteriostatic activity against Staphylococcus aureus ATCC 25923 assessed as reduction in bacterial growth measured after 20 hrs by CLSI protocol based broth microdilution method. In kind it is functional, organism-based.
For data set [8], the system named is Bacillus subtilis. Briefly: Induction of morphological changes in Bacillus subtilis 168 assessed as bulbous distortion at 2.5 to 2.75 times MIC incubated for 3 hr by phase-contrast microscopic analysis. In kind it is functional, organism-based.
The next data set has as its system 3T3-L1. Kind of data set: Cytotoxicity against mouse 3T3-L1 cells assessed as reduction in cell viability at 50 ug/ml measured after 24 to 72 hrs y MTT assay. In kind it is cell-based. The conditions noted are these: time 24-72 hrs, dose 50 µg/ml.
The test system of data set [9] is Bacillus subtilis. Briefly: Induction of morphological changes in Bacillus subtilis 168 assessed as cell lysis at 2.5 to 3.5 times MIC incubated for 1 hr by phase-contrast microscopic analysis. In kind it is functional, organism-based.
Data set [10] has as its system Bacillus subtilis. Briefly: Induction of morphological changes Bacillus subtilis 168 assessed as morphological changes by measuring cell lysis with cell debris and ghost cells at 3 times MIC incubated for 3 hr by phase-contrast microscopic analysis. In kind it is functional, organism-based.
Data set [11] concerns Bacillus subtilis. Kind of data set: Induction of morphological changes in Bacillus subtilis 168 assessed as immediate cell lysis at >8 ug/ml incubated for 120 mins by phase-contrast microscopic analysis. In kind it is functional, organism-based. The conditions noted are these: dose > 8.0 µg/ml.
For data set [12], the system named is Bacillus subtilis. Briefly: Antibacterial activity against Bacillus subtilis 168 assessed as bacterial growth inhibition measured after 20 hrs by CLSI protocol based broth microdilution method. In kind it is functional.
The nature of data set [13]: Cytotoxicity against mouse 3T3-L1 cells assessed as cell viability at 25 ug/ml measured up to 72 hrs y MTT assay relative to control. In kind it is cell-based. The note with it: at 25 µg/mL, read-out: Activity.

Each structure is given as a SMILES string. In brackets after ≈: the same amount, converted by molar mass. Activity calls are given as the source filed them. The rule behind the calls is not given here.

For `Oc1cccc(-c2cc(-c3ccc(-c4ccccc4)cc3)n[nH]2)c1`, the MIC95 in the data set with Escherichia coli [1] and with Staphylococcus aureus [2] was greater than 128 µg/mL throughout.
With `COc1ccc(-c2cc(-c3ccc(-c4ccc(Cl)cc4)cc3)n[nH]2)cc1`, the MIC95 in the data set on Escherichia coli [1] and in the data set with Staphylococcus aureus [2] was greater than 128 µg/mL throughout.
Consider `COc1ccc(-c2cc(-c3ccc(-c4ccc(C(C)(C)C)cc4)cc3)n[nH]2)cc1`, for which the MIC95 in the data set with Escherichia coli [1] and in the data set on Staphylococcus aureus [2] was greater than 128 µg/mL throughout.
In the case of `COc1ccc(-c2cc(-c3ccc(-c4ccc(Cl)cc4)cc3)n[nH]2)c(OC)c1`, the MIC95 with Escherichia coli [1] and in the data set on Staphylococcus aureus [2] was greater than 128 µg/mL in each case.
In the case of `COc1ccc(-c2cc(-c3ccc(-c4ccc(C(C)(C)C)cc4)cc3)n[nH]2)cc1OC`, the MIC95 in the data set on Escherichia coli [1] and in the data set on Staphylococcus aureus [2] was greater than 128 µg/mL in each case.
As to `COc1ccc(-c2cc(-c3ccc(-c4ccccc4)cc3)n[nH]2)cc1OC`, the MIC95 in the data set on Escherichia coli [1] and with Staphylococcus aureus [2] was greater than 128 µg/mL each time. For the same compound, the “diameter of the inhibition zone (DIZ)” value in the data set with Escherichia coli [3] was 20 mm; in the data set with Bacillus subtilis [4], 13 mm.
Take `CC(C)(C)c1ccc(-c2ccc(-c3cc(-c4ccc(OCc5ccccc5)cc4)[nH]n3)cc2)cc1`: the MIC95 with Escherichia coli [1] and in the data set on Staphylococcus aureus [2] was greater than 128 µg/mL in each case.
Take `COc1cc(-c2cc(-c3ccc(-c4ccccc4)cc3)n[nH]2)ccc1O`: the outcome in the data set on Bacillus subtilis [5], in the data set with Bacillus subtilis [6], in the data set with Staphylococcus aureus [7], in the data set on Bacillus subtilis [8], in the data set with Bacillus subtilis [9] and in the data set on Bacillus subtilis [10] was Active. Further, the figures for the MIC95 with Escherichia coli [1] and in the data set on Staphylococcus aureus [2] were greater than 128 µg/mL and 8 µg/mL (≈ 23.4 µM), respectively. Also, in the data set with 3T3-L1, the Activity result is on record as “Non-Toxic”. In addition, the outcome in the data set with Bacillus subtilis [11] was inactive. Further, the MIC with Bacillus subtilis [12] worked out at 8 µg/mL (≈ 23.4 µM).
On to `Clc1ccc(-c2ccc(-c3cc(-c4cccc(OCc5ccccc5)c4)[nH]n3)cc2)cc1`, for which the MIC95 with Escherichia coli [1] and with Staphylococcus aureus [2] was greater than 128 µg/mL throughout.
For the compound `COc1ccc(-c2cc(-c3ccc(-c4ccc(Cl)cc4)cc3)n[nH]2)cc1OC`, the MIC95 in the data set on Escherichia coli [1] and in the data set on Staphylococcus aureus [2] was greater than 128 µg/mL each time.
Consider `COc1ccc(OC)c(-c2cc(-c3ccc(-c4ccccc4)cc3)n[nH]2)c1`, for which the MIC95 in the data set on Escherichia coli [1] and in the data set on Staphylococcus aureus [2] was greater than 128 µg/mL each time.
For `COc1cc(-c2cc(-c3ccc(-c4ccc(Cl)cc4)cc3)n[nH]2)ccc1OCc1ccccc1`, the MIC95 in the data set with Escherichia coli [1] and with Staphylococcus aureus [2] was greater than 128 µg/mL each time.
Take `COc1ccc(OC)c(-c2cc(-c3ccc(-c4ccc(C(C)(C)C)cc4)cc3)n[nH]2)c1`: the MIC95 in the data set on Escherichia coli [1] and in the data set on Staphylococcus aureus [2] was greater than 128 µg/mL in each case.
Turning to `COc1cc(-c2cc(-c3ccc(C(C)(C)C)cc3)n[nH]2)ccc1O`, the outcome in the data set with Bacillus subtilis [5] and with Staphylococcus aureus [7] was Active. The values for the MIC95 in the data set with Escherichia coli [1] and with Staphylococcus aureus [2] were greater than 128 µg/mL and 32 µg/mL (≈ 99.3 µM), respectively. The viability at 72 h, 25 ug/ml in data set [13] was 85%. For the same compound, the MIC with Bacillus subtilis [12] was determined as 16 µg/mL (≈ 49.6 µM).
`COc1ccc(-c2cc(-c3ccc(-c4ccccc4)cc3)n[nH]2)cc1`: the MIC95 with Escherichia coli [1] and in the data set on Staphylococcus aureus [2] was greater than 128 µg/mL each time.
With `COc1ccc(OC)c(-c2cc(-c3ccc(-c4ccc(Cl)cc4)cc3)n[nH]2)c1`, the MIC95 with Escherichia coli [1] and with Staphylococcus aureus [2] was greater than 128 µg/mL each time.
In the case of `Clc1ccc(-c2ccc(-c3cc(-c4ccc(OCc5ccccc5)cc4)[nH]n3)cc2)cc1`, the MIC95 with Escherichia coli [1] and with Staphylococcus aureus [2] was greater than 128 µg/mL each time.

Values taken from ChEMBL document CHEMBL5055649, “Synthesis and biological evaluation of 3,5-substituted pyrazoles as possible antibacterial agents” (Bioorg Med Chem, 2021).
